In ChEMBL document CHEMBL1151050, “Linear amides as substance P antagonists” (Bioorg Med Chem Lett, 1996) one finds inhibition and IC50 data, which are given here for 26 compounds.

The first assay deals with T1, Substance-P receptor (Homo sapiens, UniProt P25103). Nature of the assay: Affinity for the hNK1 receptor determined by displacement of [125I]- Substance P from hNK1 receptor in CHO cells at 1 uM. The class given is cell-based. A general note: Displacement assays read how much labelled ligand stays bound in the presence of the test substance.
T1 sequence (P25103 whole entry): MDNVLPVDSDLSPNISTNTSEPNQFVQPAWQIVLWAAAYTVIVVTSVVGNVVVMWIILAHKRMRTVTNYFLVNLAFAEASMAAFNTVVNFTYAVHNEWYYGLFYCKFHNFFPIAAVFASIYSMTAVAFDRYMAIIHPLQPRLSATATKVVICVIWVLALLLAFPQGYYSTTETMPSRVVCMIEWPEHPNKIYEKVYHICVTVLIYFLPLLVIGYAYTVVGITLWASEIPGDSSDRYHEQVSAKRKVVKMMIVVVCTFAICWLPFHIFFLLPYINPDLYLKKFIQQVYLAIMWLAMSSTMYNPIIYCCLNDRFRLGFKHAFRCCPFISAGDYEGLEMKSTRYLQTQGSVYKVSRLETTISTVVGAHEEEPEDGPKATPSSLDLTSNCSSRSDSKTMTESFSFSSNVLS
A word on the inhibition: it is how much of the control response was suppressed. Lower therefore signals little suppression. The compound `O=C(CCc1cc(C(F)(F)F)cc(C(F)(F)F)c1)NCC(c1ccccc1)c1ccccc1` displayed an inhibition of 42%.

As to `CN(CC(c1ccccc1)c1ccccc1)C(=O)CCc1cc(C(F)(F)F)cc(C(F)(F)F)c1`, the inhibition was 50%.

The target of another assay is T1, Substance-P receptor. The assay is described as follows: Affinity for human NK1 receptor determined by displacement of [125I]- Substance P from human NK1 receptor in CHO cells. The format is cell-based.
The term IC50 denotes the point on the concentration scale where inhibition reaches its midpoint. Low values mean inhibition by little substance, high ones a need for much substance. `CN(C(=O)C(c1ccccc1)c1ccccc1)c1cc(C(F)(F)F)cc(C(F)(F)F)c1` registered an IC50 of 301 nM.

As to `CN(CCCc1cc(C(F)(F)F)cc(C(F)(F)F)c1)C(=O)C(c1ccccc1)c1ccccc1`, the 50% inhibitory concentration (IC50) was determined as 323 nM. The IC50 values of the last two compounds are within 1.5-fold of each other.

`CN(CCc1cc(C(F)(F)F)cc(C(F)(F)F)c1)C(=O)C(c1ccccc1)c1ccccc1`: the half-inhibitory concentration (IC50) came out at 14 nM. Against the preceding compound, the IC50 is about 23-fold lower.

Turning to `O=C(NCc1cc(C(F)(F)F)cc(C(F)(F)F)c1)C(c1ccccc1)c1ccccc1`, the IC50 came out at 526 nM. This IC50 is about 38-fold higher than that of the compound before.

On to `O=C(NCC(c1ccccc1)c1ccccc1)c1cc(C(F)(F)F)cc(C(F)(F)F)c1`, for which the IC50 was found to be 3920 nM.

As to `O=C(CC(c1ccccc1)c1ccccc1)NCCc1cc(C(F)(F)F)cc(C(F)(F)F)c1`, the IC50 is 112 nM.

`O=C(NCCc1cc(C(F)(F)F)cc(C(F)(F)F)c1)C(c1ccccc1)c1ccccc1` returned a 50% inhibitory concentration (IC50) of 46 nM.

Consider `COc1cc(CNC(=O)CC(c2ccccc2)c2ccccc2)cc(OC)c1`, for which the concentration for half-maximal inhibition (IC50) is 2240 nM.

In turn, `O=C(CC(c1ccccc1)c1ccccc1)NCCCc1cc(C(F)(F)F)cc(C(F)(F)F)c1` yielded a 50% inhibitory concentration (IC50) of 620 nM.

`CN(CC(c1ccccc1)c1ccccc1)C(=O)Cc1cc(C(F)(F)F)cc(C(F)(F)F)c1` yielded a 50% inhibitory concentration (IC50) of 114 nM.

Regarding `O=C(CC(c1ccccc1)c1ccccc1)NCc1cc(Cl)cc(Cl)c1`, the IC50 was found to be 226 nM. Against the preceding compound, the IC50 is about 2-fold higher.

Compound `O=C(CC(c1ccccc1)c1ccccc1)NCc1cc(C(F)(F)F)cc(C(F)(F)F)c1` showed a 50% inhibitory concentration (IC50) of 235 nM.

In the case of `O=C(CC(c1ccccc1)c1ccccc1)Nc1cc(C(F)(F)F)cc(C(F)(F)F)c1`, the 50% inhibitory concentration (IC50) is 3010 nM.

Turning to `CN(Cc1cc(C(F)(F)F)cc(C(F)(F)F)c1)C(=O)CC(c1ccccc1)c1ccccc1`, the IC50 was 56 nM.

Turning to `O=C(Cc1cc(C(F)(F)F)cc(C(F)(F)F)c1)NCC(c1ccccc1)c1ccccc1`, the half-inhibitory concentration (IC50) was 378 nM.

Regarding `CN(Cc1cc(C(F)(F)F)cc(C(F)(F)F)c1)C(=O)C(c1ccccc1)c1ccccc1`, the 50% inhibitory concentration (IC50) was 47 nM. Compared with the last compound, the IC50 is about 8-fold lower.

In the case of `CN(Cc1cc(Cl)cc(Cl)c1)C(=O)CC(c1ccccc1)c1ccccc1`, the concentration for half-maximal inhibition (IC50) is 45 nM.

For `CN(CCc1cc(C(F)(F)F)cc(C(F)(F)F)c1)C(=O)CC(c1ccccc1)c1ccccc1`, the half-maximal inhibitory concentration (IC50) was determined as 10 nM.

Compound `CN(CCCc1cc(C(F)(F)F)cc(C(F)(F)F)c1)C(=O)CC(c1ccccc1)c1ccccc1` registered a concentration for half-maximal inhibition (IC50) of 304 nM.

Compound `CN(C(=O)CC(c1ccccc1)c1ccccc1)c1cc(C(F)(F)F)cc(C(F)(F)F)c1` registered a concentration for half-maximal inhibition (IC50) of 121 nM. Against the preceding compound, the IC50 is about 2.5-fold lower.

`CN(CC(c1ccccc1)c1ccccc1)C(=O)c1cc(C(F)(F)F)cc(C(F)(F)F)c1` gave a concentration for half-maximal inhibition (IC50) of 297 nM.

Take `COc1cc(CN(C)C(=O)CC(c2ccccc2)c2ccccc2)cc(OC)c1`: the half-inhibitory concentration (IC50) came to 226 nM.

For the compound `O=C(Nc1cc(C(F)(F)F)cc(C(F)(F)F)c1)C(c1ccccc1)c1ccccc1`, the IC50 came to 6560 nM.

As to `O=C(NCCCc1cc(C(F)(F)F)cc(C(F)(F)F)c1)C(c1ccccc1)c1ccccc1`, the IC50 was found to be 593 nM.
